Tests used:
[1] = tested on: SK-Mel-2 human melanoma cells; test: Cytotoxicity, resazurin metabolism assay, SK-Mel-2; assay type: cell-based; conditions: mean ± SD
Description: (§1) Human lung carcinoma (A-549), human colon adenocarcinoma (DLD-1), human normal fibroblasts (WS1), mice melanoma (B16-F1), Human glioma (U-251), Human hepatocellular carcinoma (HEP G2), Human prostate adenocarcinoma (PC-3), Human ovary teratocarcinoma metastatic (PA-1), Human breast adenocarcinona metastatic (MDA-MB-231), Human breast adenocarcinoma (MCF-7) and Human malignant melanoma (SK-MEL-2) cell lines were obtained from the American Type Culture Collection (ATCC). All cell lines were cultured in minimum essential medium containing Earle's salts and L-glutamine (Mediatech Cellgro, Va.), to which was added 10% fetal bovine serum (Hyclone), vitamins (1×), penicillin (100 I.U./mL) and streptomycin (100 μg/mL), essential amino acids (1×) and sodium pyruvate (1×) (Mediatech Cellgro, Va.). Cells were kept at 37° C. in a humidified environment containing 5% CO2.
(§2) Exponentially growing cells were plated in 96-well microplates (Costar, Corning Inc.) at a density of 5×10^3 cells per well in 100 μL of culture medium and were allowed to adhere for 16 hours before treatment. Increasing concentrations of each compound in DMSO (Sigma-Aldrich) were then added (100 μL per well) and the cells were incubated for 48 h. […] Cytotoxicity was assessed using resazurin (O'Brien, J. et al., Eur. J. Biochem. 2000, 267, 5421-5426) on an automated 96-well Fluoroskan Ascent F1™ plate reader (Labsystems) using excitation and emission wavelengths of 530 nm and 590 nm, respectively. Fluorescence was proportional to the cellular metabolic activity in each well. Survival percentage was defined as the fluorescence in experimental wells compared to that in control wells after subtraction of blank values. Each experiment was carried out three times in triplicata. IC50 results were expressed as mean±standard deviation.
(§3) Compounds presented in Table 5 below were also tested in the following tumour cell lines: U-251 (Human glioma), HEP G2 (Human hepatocellular carcinoma), PC-3 (Human prostate adenocarcinoma), PA-1 (Human ovary teratocarcinoma metastatic), MDA-MB-231 (Human breast adenocarcinona metastatic), MCF-7 (Human breast adenocarcinoma) and SK-MEL-2 (Human malignant melanoma).

B16-F1 cells = test: Cytotoxicity, Hoechst DNA assay, B16-F1; assay type: cell-based, mouse; conditions: ± SD
Description: as §1
(§4) The cytotoxicity of triterpenes (1-8) and corresponding glycosides (9-30) (Table 2 below) as well as of germanicane-type triterpenes and glycosides (31-44) (Table 3 below) was assessed towards human cancer (A-549, DLD-1), mouse melanoma (B16-F1) and human normal skin fibroblast (WS1) cell lines using the resazurin reduction test (RTT test) as previously described (O'Brien, J. et al., Eur. J. Biochem. 2000, 267, 5421-5426). Measurements of fluorescence were carried out after 48 continuous hours of contact between compounds and cells. Results presented in Tables 2 and 3 below express the concentration inhibiting 50% of the cell growth (IC50). Known for its activity against A-549, betulinic acid (3) was used as a positive control in this experimentation. […] The cytotoxic activity of some of these compounds was also assessed using the Hoechst DNA assay (Table 4 below).

[2] = tested on: MCF-7 human breast adenocarcinoma cells; test: Cytotoxicity, resazurin metabolism assay, MCF-7; assay type: cell-based; conditions: mean ± SD
Description: as §1, §2, §3

[3] = tested on: B16-F1 mouse melanoma cells; test: Cytotoxicity, resazurin metabolism assay, B16-F1; assay type: cell-based; conditions: 48 h, mean ± SD
Description: as §1, §2, §4

WS-1 cells = test: Cytotoxicity, Hoechst DNA assay, WS-1; assay type: cell-based, human; conditions: ± SD
Description: as §1, §4

U-251 human glioma cells = test: Cytotoxicity, resazurin metabolism assay, U-251; assay type: cell-based; conditions: mean ± SD
Description: as §1, §2, §3

[4] = tested on: WS-1 human normal skin fibroblasts; test: Cytotoxicity, resazurin metabolism assay, WS-1; assay type: cell-based; conditions: 48 h, mean ± SD
Description: as §1, §2, §4

[5] = tested on: PC-3 human prostate adenocarcinoma cells; test: Cytotoxicity, resazurin metabolism assay, PC-3; assay type: cell-based; conditions: mean ± SD
Description: as §1, §2, §3

A-549 cells = test: Cytotoxicity, Hoechst DNA assay, A-549; assay type: cell-based, human; conditions: ± SD
Description: as §1, §4

[6] = tested on: PA-1 human ovary teratocarcinoma cells; test: Cytotoxicity, resazurin metabolism assay, PA-1; assay type: cell-based; conditions: mean ± SD
Description: as §1, §2, §3

[7] = tested on: DLD-1 human colorectal adenocarcinoma cells; test: Cytotoxicity, resazurin metabolism assay, DLD-1; assay type: cell-based; conditions: 48 h, mean ± SD
Description: as §1, §2, §4

DLD-1 cells = test: Cytotoxicity, Hoechst DNA assay, DLD-1; assay type: cell-based, human; conditions: ± SD
Description: as §1, §4

[8] = tested on: Hep G2 human hepatocellular carcinoma cells; test: Cytotoxicity, resazurin metabolism assay, Hep G2; assay type: cell-based; conditions: mean ± SD
Description: as §1, §2, §3

[9] = tested on: A-549 human lung carcinoma cells; test: Cytotoxicity, resazurin metabolism assay, A-549; assay type: cell-based; conditions: 48 h, mean ± SD
Description: as §1, §2, §4

[10] = tested on: MDA-MB-231 human breast adenocarcinoma cells; test: Cytotoxicity, resazurin metabolism assay, MDA-MB-231; assay type: cell-based; conditions: mean ± SD
Description: as §1, §2, §3

| SMILES | IC50 [1] [µM] | IC50 (B16-F1 cells) [µM] | IC50 [2] [µM] | IC50 [3] [µM] | IC50 (WS-1 cells) [µM] | IC50 (U-251 human glioma cells) [µM] | IC50 [4] [µM] | IC50 [5] [µM] | IC50 (A-549 cells) [µM] | IC50 [6] [µM] | IC50 [7] [µM] | IC50 (DLD-1 cells) [µM] | IC50 [8] [µM] | IC50 [9] [µM] | IC50 [10] [µM] |
| --- | --- | --- | --- | --- | --- | --- | --- | --- | --- | --- | --- | --- | --- | --- | --- |
| C=C(C)[C@@H]1CC[C@]2(C)CC[C@]3(C)[C@H](CC[C@@H]4[C@@]5(C)CC[C@H](O[C@@H]6O[C@H](CO)[C@@H](O)[C@H](O)[C@H]6O)C(C)(C)[C@@H]5CC[C@]43C)[C@@H]12 [Compound 9, 3-O-6-D-Glucopyranoside of lupeol] | 15.5 ± 0.6 | 18 ± 2 | 16.4 ± 0.5 | 15 ± 0.7 | 20 ± 2 | 17.9 ± 0.7 | 13.3 ± 0.5 | 30 ± 2 | 22 ± 2 | 13 ± 1 | 14 ± 1 | 19 ± 1 | 17.8 ± 0.2 | 14 ± 1 | 20.9 ± 0.6 |
| C=C(C)[C@@H]1CC[C@]2(C)CC[C@]3(C)[C@H](CC[C@@H]4[C@@]5(C)CC[C@H](O[C@H]6OC[C@@H](O)[C@@H](O)[C@@H]6O)C(C)(C)[C@@H]5CC[C@]43C)[C@@H]12 [Compound 11, 3-O-α-D-Arabinopyranoside of Lupeol] | 10 ± 0.8 | 28 ± 1 | 23 ± 2 | 27 ± 2 | 24 ± 1 | 10.1 ± 0.2 | 15.8 ± 0.8 | 26 ± 3 | 34 ± 2 | 9.8 ± 0.6 | 50 ± 6 | 69 ± 7 | 10 ± 0.9 | 28 ± 2 | 11 ± 1 |
| C=C(C)C1CCC2(CO)CCC3(C)C(CCC4C5(C)CCC(OC6OC(C)C(O)C(O)C6O)C(C)(C)C5CCC43C)C12 [Compound 13, 3-O-α-L-Rhamnopyranoside of Betulin] | 110 ± 20 | – | 19 ± 4 | 18 ± 1 | – | 170 ± 40 | 33 ± 5 | 61 ± 6 | – | 180 ± 30 | 50 ± 10 | – | 11 ± 0.9 | 22 ± 3 | 33 ± 2 |
| C=C(C)C1CCC2(CO)CCC3(C)C(CCC4C5(C)CCC(OC6OCC(O)C(O)C6O)C(C)(C)C5CCC43C)C12 [Compound 14, 3-O-α-D-Arabinopyranoside of Betulin] | 54 ± 3 | – | 61 ± 7 | 38 ± 3 | – | 40 ± 7 | 59 ± 5 | 65 ± 6 | – | 41 ± 5 | 63 ± 8 | – | 38 ± 2 | 41 ± 3 | 49.2 ± 0.9 |
| C=C(C)[C@@H]1CC[C@]2(C(=O)OC)CC[C@]3(C)[C@H](CC[C@@H]4[C@@]5(C)CC[C@H](O[C@@H]6O[C@H](CO)[C@@H](O)[C@H](O)[C@H]6O)C(C)(C)[C@@H]5CC[C@]43C)[C@@H]12 [Compound 18, 3-O-β-D-Glucopyranoside of Methyl Betulinate] | 103 ± 4 | 7.2 ± 0.8 | 110 ± 6 | 7.1 ± 0.3 | 12 ± 2 | 84 ± 2 | 9.3 ± 0.2 | 130 ± 30 | 9.3 ± 0.6 | 60 ± 20 | 3.93 ± 0.09 | 4 ± 0.2 | 79 ± 5 | 8.4 ± 0.3 | 101.7 ± 0.1 |
| C=C(C)[C@@H]1CC[C@]2(C(=O)OC)CC[C@]3(C)[C@H](CC[C@@H]4[C@@]5(C)CC[C@H](O[C@H]6OC[C@@H](O)[C@@H](O)[C@@H]6O)C(C)(C)[C@@H]5CC[C@]43C)[C@@H]12 [Compound 20, 3-O-α-D-Arabinopyranoside of Methyl Betulinate] | 16 ± 1 | 12.6 ± 0.5 | 21 ± 3 | 13.3 ± 0.4 | 13.2 ± 0.7 | 15 ± 1 | 12.5 ± 0.4 | 17 ± 1 | 11.7 ± 0.8 | 16 ± 4 | 18 ± 1 | 16 ± 0.6 | 15 ± 2 | 13.5 ± 0.6 | 16.3 ± 0.8 |
| C=C(C)[C@@H]1CC[C@]2(C(=O)O)CC[C@]3(C)[C@H](CC[C@@H]4[C@@]5(C)CC[C@H](O[C@@H]6OC[C@@H](O)[C@H](O)[C@H]6O)C(C)(C)[C@@H]5CC[C@]43C)[C@@H]12 [Compound 30, 3-O-β-D-Xylopyranoside of betulinic acid] | 36 ± 4 | – | 23 ± 4 | – | – | 26 ± 6 | 21 ± 1 | 46 ± 8 | – | 7.9 ± 0.9 | 19.2 ± 0.8 | – | 43 ± 3 | 14 ± 2 | 40 ± 4 |
| CC1(C)CCC23CCC4(C)C(CCC5C6(C)CCC(OC7OC(CO)C(O)C(O)C7O)C(C)(C)C6CCC54C)C2C1OC3 [Compound 33, 3-O-β-D-Glucopyranoside of Allobetulin] | 37 ± 2 | – | 51 ± 2 | – | – | 46 ± 1 | 45 ± 3 | 42 ± 8 | – | 39 ± 2 | 41.6 ± 0.9 | – | 44 ± 5 | 31 ± 2 | 41.2 ± 0.7 |
| CC1(C)CC[C@]23CC[C@]4(C)[C@H](CC[C@@H]5[C@@]6(C)CC[C@H](O[C@@H]7O[C@H](CO)[C@H](O)[C@H](O)[C@H]7O)C(C)(C)[C@@H]6CC[C@]54C)[C@H]2[C@H]1OC3 [Compound 36, 3-O-β-D-Galactopyranoside of Allobetulin] | 40 ± 3 | – | 60 ± 20 | – | – | 53 ± 4 | 30 ± 9 | 45 ± 6 | – | 45 ± 4 | 42 ± 9 | – | 41 ± 10 | 30 ± 10 | 44 ± 4 |
